Data as given in patent publication EP4703354A1, “COMPOUND AS CCR6 ANTAGONIST, AND PHARMACEUTICAL COMPOSITION AND USE THEREOF” (Wuhan Createrna Science and Technology Co.,Ltd., priority 2023, dated 2024).

Columns and labels:
Type in all cases: in vitro ADME
[1] = in vitro liver microsome metabolic stability, human; conditions: Human liver microsomes, 37°C
Procedure: (§1) Preparation of working solutions for test compounds and standards: An appropriate amount of the compound was accurately weighed and dissolved in a corresponding volume of suitable solvent to prepare 1 mM stock solutions of the test compounds and standards. The stock solutions were then diluted with appropriate solvent to obtain 100 µM working solutions of the test compounds, ensuring that the DMSO content in the working solutions remained below 10%.
(§2) The internal standard compound testosterone (or tolbutamide) and its corresponding solvent, internal standard concentration (200 ng/mL), were selected based on the properties of the test compound.
(§3) • Solution A: 0.1 mol/L K2HPO4 (2.28 g K2HPO4·3H2O was dissolved in 100 mL of double-distilled water); • Solution B: 0.1 mol/L KH2PO4 (1.36 g KH2PO4 was dissolved in 100 mL of double-distilled water); • 80.2 mL of Solution A and 19.8 mL of Solution B were mixed thoroughly, and the pH was adjusted to 7.4.
(§4) 37.5 mg of glycine was weighed, dissolved in 100 mL of ultrapure water, and adjusted to pH 8.0 with NaOH.
(§5) 1.25 mg of glucose-6-phosphate dehydrogenase (400 U/mg) was weighed (the specific amount weighed was calculated based on the activity of the purchased glucose-6-phosphate dehydrogenase), dissolved in 1 mL of glycine buffer to a concentration of 500 U/mL, aliquoted into 20 µL per tube, and stored at -20°C for future use.
(§6) 7.83 mg of NADP, 0.06 mL of D-glucose-6-phosphate (260 mg/mL), and 10.17 mg of MgCl2·6H2O were precisely weighed.
(§7) The mixture was dissolved in 1 mL of pure water. The cofactor ratio composition: NADP 10 mM, D-glucose-6-phosphate 60 mM, MgCl2·6H2O 50 mM.
(§8) The reaction system (taking a 500 µL system as an example) was composed of the following solution ratios: 416.5 µL phosphate buffer, 5 µL compound working solution, 25 µL liver microsomes, 3.5 µL glucose-6-phosphate dehydrogenase, and 50 µL cofactor solution. The total incubation volume could be adjusted according to experimental requirements.
(§9) 416.5 µL of phosphate buffer was taken, 25 µL of liver microsomes, 3.5 µL of glucose-6-phosphate dehydrogenase, and 50 µL of cofactor solution were added, vortexed twice to mix, and preincubated in a 37°C water bath for 5 minutes. Then, 5 µL of the test compound working solution was added, vortexed twice to mix, each time for 2-3 seconds, and placed in a 37°C water bath to initiate the reaction, with two parallel samples set. At 0.5 min, 1 min, 2 min, 5 min, 15 min, and 30 min after the reaction, 50 µL of the mixture was taken and added to centrifuge tubes containing 200 µL of 0°C pre-cooled internal standard working solution to terminate the reaction, vortexed for 1 minute to mix, and centrifuged at 13,000 rpm for 10 minutes in a 4°C pre-cooled high-speed centrifuge. The supernatant was collected for analysis. After the compound was added and vortex-mixed, 50 µL of the mixture was rapidly transferred to a centrifuge tube containing 200 µL of a pre-cooled (0°C) internal standard working solution to terminate the reaction, vortex-mixed for 1 minute, and used as the relative zero-point sample (relative to the standard group). The sample was then placed into a 37°C water bath to initiate the reaction, and timing was started.
(§10) The sample analysis of the test compound was performed using the liquid chromatography-tandem mass spectrometry (LCMS/MS) method. The semi-quantitative determination was performed using the ratio of the analyte peak area to the internal standard peak area. The retention times of the analyte and internal standard, chromatogram acquisition, and chromatogram integration were processed using Analyst software.
(§11) The in vitro elimination rate constant k of the test compound and the control compound was determined by converting the ratio of the peak area of the test compound to the internal standard into the remaining rate, and T1/2 was then calculated according to the following formula. T1/2 = (Ln2)/(k) = (0.693)/(k) [formula] Table 3. […]

[2] = in vitro liver microsome metabolic stability, rat; conditions: Rat liver microsomes, 37°C
Procedure: as §1, §2, §3, §4, §5, §6, §7, §8, §9, §10, §11

[3] = in vitro liver microsome metabolic stability, beagle dog; conditions: Beagle dog liver microsomes, 37°C
Procedure: as §1, §2, §3, §4, §5, §6, §7, §8, §9, §10, §11

Liver microsome T1-2 (min) Human [1] [min] | Liver microsome T1-2 (min) Rat [2] [min] | Liver microsome T1-2 (min) Beagle dog [3] [min] | Structure (SMILES)
713.96 | 403.32 | 669.81 | Cc1cccnc1[C@H](Nc1c(Nc2ccc(Cl)c(C(=O)N(C)C)c2O)c(=O)c1=O)C1(C)CC(F)CO1 (stereo partly drawn) [compound 081, 6-chloro-3-((2-(((1S)-(4-fluoro-2-methyltetrahydrofuran-2-yl)(3-methylpyridin-2-yl)methyl)amino)-3,4-dioxocyclobut-l-en-1-yl)amino)-2-hydroxy-N,N-dimethylbenzamide]
261.96 | 290.01 | 275.16 | Cc1cccnc1[C@H](Nc1c(Nc2ccnc(C(=O)N(C)C)c2O)c(=O)c1=O)C1(C)CCCO1 (stereo partly drawn) [compound 082, 3-hydroxy-N,N-dimethyl-4-((2-(((1S)-(3-methylpyridin-2-yl)(2-methyltetrahydrofuran-2-yl)methyl)amino)-3,4-dioxocyclobut-1-en-1-yl)amino)picolinamide]
412.77 | 290.38 | 741.46 | Cc1cccnc1C(Nc1c(Nc2ccc(Cl)c(C(=O)N(C)C)c2O)c(=O)c1=O)C1(C)CCOC1 (stereo not drawn) [compound 083, 6-chloro-2-hydroxy-N,N-dimethyl-3-((2-(((3-methylpyridin-2-yl)(3-methyltetrahydrofuran-3-yl)methyl)amino)-3,4-dioxocyclobut-1-en-1-yl)amino)benzamide]
423.69 | 39.67 | 753.15 | Cc1cccnc1[C@H](Nc1c(Nc2ccc(Cl)c(C(=O)N(C)C)c2O)c(=O)c1=O)C1(C)CC(F)(F)C1 [compound 088, (R)-6-chloro-3-((2-(((3,3-difluoro-1-methylcyclobutyl)(3-methylpyridin-2-yl)methyl)amino)-3,4-dioxocyclobut-l-en-1-yl)amino)-2-hydroxy-N,N-dimethylbenzamide]
209.60 | 50.16 | 355.30 | Cc1nccnc1[C@H](Nc1c(Nc2ccc(F)c(C(=O)N(C)C(C)C)c2O)c(=O)c1=O)C1(C)CCCC1 [compound 090, (R)-6-fluoro-2-hydroxy-N-isopropyl-N-methyl-3-((2-(((1-methylcyclopentyl)(3-methylpyrazin-2-yl)methyl)amino)-3,4-dioxocyclobut-1-en-1-yl)amino)benzamide]
717.09 | 72.62 | 338.24 | Cc1nccnc1[C@H](Nc1c(Nc2ccnc(C(=O)N(C)C)c2O)c(=O)c1=O)C1(C)CCCC1 [compound 091, (R)-3-hydroxy-N,N-dimethyl-4-((2-(((1-methylcyclopentyl)(3-methylpyrazin-2-yl)methyl)amino)-3,4-dioxocyclobut-1-en-1-yl)amino)picolinamide]
724.74 | 230.78 | 209.62 | CN(C)C(=O)c1nccc(Nc2c(N[C@@H](c3nc(C(F)F)ccc3F)C3(C)CC(F)(F)CO3)c(=O)c2=O)c1O (stereo partly drawn) [compound 097, 4-((2-(((1S)-(4,4-difluoro-2-methyltetrahydrofuran-2-yl)(6-(difluoromethyl)-3-fluoropyridin-2-yl)methyl)amino)-3,4-dioxocyclobut-1-en-1-yl)amino)-3-hydroxy-N,N-dimethylpicolinamide]
